From ChEMBL document CHEMBL1201862, “PubChem BioAssay data set” (2004)
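These data come from cells grown in 96-well plates and exposed to compound for 48 hours at five concentrations. GI50 = concentration required for 50% inhibition of growth.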 Calls of active or inactive are those of the source. No stated cut-off is given here; in the data, active = GI50 up to about 1.1 µM and inactive = higher.

Key:
Test in all cases: NCI anticancer screen, dose series, 48 h
786-0 = tested on: 786-0
A498 = tested on: A498
A549 = tested on: A549
ACHN = tested on: ACHN
CAKI-1 = tested on: CAKI-1
CCRF-CEM = tested on: CCRF-CEM
COLO 205 = tested on: COLO 205
DLD-1 = tested on: DLD-1
DMS-114 = tested on: DMS-114
DMS-273 = tested on: DMS-273
EKVX = tested on: EKVX
HCC 2998 = tested on: HCC 2998
HCT-116 = tested on: HCT-116
HCT-15 = tested on: HCT-15
HL-60 = tested on: HL-60
HOP-62 = tested on: HOP-62
HT-29 = tested on: HT-29
IGROV-1 = tested on: IGROV-1
K562 = tested on: K562
KM-20L2 = tested on: KM-20L2
KM12 = tested on: KM12
LOX IMVI = tested on: LOX IMVI
LXFL 529 = tested on: LXFL 529
M14 = tested on: M14
M19-MEL = tested on: M19-MEL
MOLT-4 = tested on: MOLT-4
Malme-3M = tested on: Malme-3M
NCI-H226 = tested on: NCI-H226
NCI-H23 = tested on: NCI-H23
NCI-H460 = tested on: NCI-H460
NCI-H522 = tested on: NCI-H522
OVCAR-3 = tested on: OVCAR-3
OVCAR-4 = tested on: OVCAR-4
OVCAR-5 = tested on: OVCAR-5
OVCAR-8 = tested on: OVCAR-8
RPMI-8226 = tested on: RPMI-8226
SF-268 = tested on: SF-268
SF-295 = tested on: SF-295
SF-539 = tested on: SF-539
SK-MEL-28 = tested on: SK-MEL-28
SK-MEL-2 = tested on: SK-MEL-2
SK-MEL-5 = tested on: SK-MEL-5
SK-OV-3 = tested on: SK-OV-3
SN12C = tested on: SN12C
SNB-19 = tested on: SNB-19
SNB-78 = tested on: SNB-78
SR = tested on: SR
SW-620 = tested on: SW-620
TK-10 = tested on: TK-10
U-251 = tested on: U-251
UACC-257 = tested on: UACC-257
UACC-62 = tested on: UACC-62
UO-31 = tested on: UO-31
XF498 = tested on: XF498
HOP-92 = tested on: HOP-92
SNB-75 = tested on: SNB-75

`C/C(=C\c1ccccc1)C(O)C(=O)c1nc2ccc(Cl)cc2nc1O` (stereo unspecified) was tested, and the GI50 (786-0) was > 100 µM (inactive), the GI50 (A498) was > 100 µM (inactive) and the GI50 (A549) was > 100 µM (inactive). The GI50 (ACHN) was > 100 µM (inactive), the GI50 (CAKI-1) was > 100 µM (inactive) and the GI50 (CCRF-CEM) was 13.6 µM (inactive). For the same compound, the GI50 (COLO 205) was > 100 µM (inactive), the GI50 (DLD-1) was > 100 µM (inactive) and the GI50 (DMS-114) was 46.3 µM (inactive). For the same compound, the GI50 (DMS-273) was > 100 µM (inactive), the GI50 (EKVX) was 91.2 µM (inactive) and the GI50 (HCC 2998) was > 100 µM (inactive). For the same compound, the GI50 (HCT-116) was > 100 µM (inactive), the GI50 (HCT-15) was over 100 µM and the GI50 (HL-60) was 27 µM (inactive). For the same compound, the GI50 (HOP-62) was > 100 µM (inactive), the GI50 (HT-29) was > 100 µM (inactive) and the GI50 (IGROV-1) was > 100 µM (inactive). For the same compound, the GI50 (K562) was 55.5 µM (inactive), the GI50 (KM-20L2) was > 100 µM (inactive) and the GI50 (KM12) was > 100 µM (inactive). The GI50 (LOX IMVI) was > 100 µM (inactive), the GI50 (LXFL 529) was 84.5 µM (inactive) and the GI50 (M14) was > 100 µM (inactive). The GI50 (M19-MEL) was > 100 µM (inactive), the GI50 (MOLT-4) was 48.3 µM (inactive) and the GI50 (Malme-3M) was > 100 µM (inactive). For the same compound, the GI50 (NCI-H226) was > 100 µM (inactive), the GI50 (NCI-H23) was > 100 µM (inactive) and the GI50 (NCI-H460) was > 100 µM (inactive). For the same compound, the GI50 (NCI-H522) was 52 µM (inactive), the GI50 (OVCAR-3) was 55.2 µM (inactive) and the GI50 (OVCAR-4) was 26 µM (inactive). The GI50 (OVCAR-5) was > 100 µM (inactive), the GI50 (OVCAR-8) was > 100 µM (inactive) and the GI50 (RPMI-8226) was 12.5 µM (inactive). For the same compound, the GI50 (SF-268) was > 100 µM (inactive), the GI50 (SF-295) was > 100 µM (inactive) and the GI50 (SF-539) was > 100 µM (inactive). The GI50 (SK-MEL-28) was > 100 µM (inactive), the GI50 (SK-MEL-2) was > 100 µM (inactive) and the GI50 (SK-MEL-5) was > 100 µM (inactive). The GI50 (SK-OV-3) was > 100 µM (inactive), the GI50 (SN12C) was > 100 µM (inactive) and the GI50 (SNB-19) was > 100 µM (inactive). The GI50 (SNB-78) was > 100 µM (inactive), the GI50 (SR) was 25.1 µM (inactive) and the GI50 (SW-620) was > 100 µM (inactive). The GI50 (TK-10) was > 100 µM (inactive), the GI50 (U-251) was > 100 µM (inactive) and the GI50 (UACC-257) was > 100 µM (inactive). The GI50 (UACC-62) was > 100 µM (inactive), the GI50 (UO-31) was > 100 µM (inactive) and the GI50 (XF498) was 92 µM (inactive).

For `O=C(O)C1Cc2[nH]c3ccccc3c2C2CCCC12` (stereo unspecified), the GI50 (786-0) was > 100 µM (inactive), the GI50 (A498) was > 100 µM (inactive) and the GI50 (A549) was > 100 µM (inactive). The GI50 (ACHN) was > 100 µM (inactive), the GI50 (CAKI-1) was > 100 µM (inactive) and the GI50 (CCRF-CEM) was > 100 µM (inactive). For the same compound, the GI50 (COLO 205) was > 100 µM (inactive), the GI50 (DLD-1) was > 100 µM (inactive) and the GI50 (DMS-114) was > 100 µM (inactive). The GI50 (DMS-273) was > 100 µM (inactive), the GI50 (EKVX) was > 100 µM (inactive) and the GI50 (HCC 2998) was > 100 µM (inactive). For the same compound, the GI50 (HCT-116) was > 100 µM (inactive), the GI50 (HCT-15) was over 100 µM and the GI50 (HOP-92) was > 100 µM (inactive). The GI50 (IGROV-1) was > 100 µM (inactive), the GI50 (K562) was > 100 µM (inactive) and the GI50 (KM-20L2) was > 100 µM (inactive). For the same compound, the GI50 (KM12) was > 100 µM (inactive), the GI50 (LOX IMVI) was > 100 µM (inactive) and the GI50 (LXFL 529) was > 100 µM (inactive). The GI50 (M14) was > 100 µM (inactive), the GI50 (M19-MEL) was > 100 µM (inactive) and the GI50 (MOLT-4) was > 100 µM (inactive). For the same compound, the GI50 (Malme-3M) was > 100 µM (inactive), the GI50 (NCI-H226) was 5.15 µM (inactive) and the GI50 (NCI-H23) was > 100 µM (inactive). For the same compound, the GI50 (NCI-H460) was > 100 µM (inactive), the GI50 (NCI-H522) was > 100 µM (inactive) and the GI50 (OVCAR-3) was > 100 µM (inactive). For the same compound, the GI50 (OVCAR-4) was > 100 µM (inactive), the GI50 (OVCAR-5) was > 100 µM (inactive) and the GI50 (OVCAR-8) was > 100 µM (inactive). For the same compound, the GI50 (SF-268) was > 100 µM (inactive), the GI50 (SF-295) was > 100 µM (inactive) and the GI50 (SF-539) was > 100 µM (inactive). For the same compound, the GI50 (SK-MEL-28) was > 100 µM (inactive), the GI50 (SK-MEL-2) was > 100 µM (inactive) and the GI50 (SK-MEL-5) was > 100 µM (inactive). For the same compound, the GI50 (SK-OV-3) was > 100 µM (inactive), the GI50 (SN12C) was > 100 µM (inactive) and the GI50 (SNB-19) was > 100 µM (inactive). For the same compound, the GI50 (SNB-75) was 46.3 µM (inactive), the GI50 (SNB-78) was > 100 µM (inactive) and the GI50 (SR) was > 100 µM (inactive). The GI50 (SW-620) was > 100 µM (inactive), the GI50 (TK-10) was > 100 µM (inactive) and the GI50 (U-251) was > 100 µM (inactive). For the same compound, the GI50 (UACC-257) was > 100 µM (inactive), the GI50 (UACC-62) was > 100 µM (inactive) and the GI50 (UO-31) was > 100 µM (inactive). For the same compound, the GI50 (XF498) was > 100 µM (inactive).
